From article PMC8997995, “Amphiphilic Cell-Penetrating Peptides Containing Natural and Unnatural Amino Acids as Drug Delivery Agents” (Cells, 2022)
Non-standard residues stand in square brackets, D forms with d. Residues, ends and D or L forms follow the SMILES beside them. Dip = N[C@H](C(=O)O)C(c1ccccc1)c1ccccc1

Columns and labels:
[1] = Transmission electron microscopy, self-assembly; format: physicochemical; conditions: TEM, 30 μM, dried on grid overnight, not stained
Procedure: Transmission electron microscopy (TEM) was done on a LVEM 5D Microscope model (Delong instruments, Brno, Czech Republic) samples were prepared on an Ultrathin Carbon Film on Lacey Carbon Support Film with 400 mesh copper from Ted Pella. Dilute solutions of 30 μM concentration were used for the TEM analysis. Samples were dropped on grids, evaporated overnight, and not stained. They were incubated for approximately 2 h after thawing from a freezer (0 to −18 °C). Samples were air-dried, and images were obtained with a LVEM5 (Delong Instruments, US) 5 keV field emission gun. The camera was Zyla 5.5 Scientific CMOS with specifications of exposure 50–200 [ms], pixel readout 200 MHz—lowest noise, dynamic range 12-bit (low noise), and summing 1.

[2] = Circular dichroism, estimate of secondary structure; format: physicochemical; conditions: CD, 100 µM peptide in water, principal component regression analysis
Procedure: Samples were prepared in 100 µM concentration dissolved in water only. The cuvette with the 1 mm path length was used for all the measurements. The circular dichroism analysis was performed with a J-1500 Jasco spectrophotometer using nitrogen gas and PM-539 detector. Parameters were selected as follows: data interval 0.1 nm, data points 701, data pitch 0.1 nm, CD scale 200 mdeg/0.1 dOD, FL scale 200 mdeg/0.1 dOD, D.I.T 2 s, bandwidth 1 nm, cell length 1 mm, start mode immediately, scanning mode continuous, scanning speed 50 nm/min, shutter control auto, and N2 flowmeter manual. An average of three readings between 190 and 260 nm were collected for each sample. The analysis was carried out using one of Multivariate Regression Analyses, which is Principal Component Regression (PCR) with a basis set containing 26 proteins reference under the following conditions: standardization of result 100, replaced negative value to zero, and rejection percentage of 1%.

SK-OV-3 cells = experiment: Cellular uptake by flow cytometry in SK-OV-3 cells; format: cell-based, human; conditions: SK-OV-3, F’-FTC 2 µM, peptide 10 µM, 3 h
Procedure: (§1) CCRF-CEM and SK-OV-3 cells were used to measure the cellular uptake of a fluorescent-labeled phosphopeptide (F’-GpYEEI) (2 µM), stavudine (F’-d4T) (2 µM) lamivudine (F’-3TC) (1–2 µM), emtricitabine (F’-FTC) (2 µM), and siRNA (F’-siRNA) (36 nM) with the least toxic concentration for each linear and the cyclic peptide (10 µM). The uptake was measured in the presence and absence of the peptides. The SK-OV-3 (0.5 million) and CCRF-CEM (a million) cells were incubated in each well of 6-well plates with the synthesized peptide and the fluorescent-labeled compound in one well. Another well contained the fluorescent-labeled compound alone for 3 h in an incubator (37 °C in a humidified atmosphere of 5% CO2). […] For more details, please refer back to the cytotoxicity method described above.
The cells were transferred to FACS analysis tubes after being washed with phosphate-buffered saline (PBS). […] Finally, the cells were resuspended in flow cytometry buffer and analyzed by flow cytometry (FACSVerse model, Becton Dickinson, San Jose, CA, USA) using the FITC channel and the BD FACSuite software. […] Finally, the cells were analyzed by using FITC channel […] argon laser for the excitation and the emitted 519 nm fluorescence for detection. […] Results were evaluated to determine whether the peptides are facilitating the fluorescence compound to cross the membrane.

CCRF-CEM cells = experiment: Cellular uptake by flow cytometry in CCRF-CEM cells; format: cell-based, human; conditions: 3 h
Procedure: as §1
The cells were transferred to FACS analysis tubes after being washed with phosphate-buffered saline (PBS). The cells were centrifuged 2500 RPM for 5 min with Fisher Scientific accuSpin Micro 17 to precipitate the cells and to allow replacing the supernatant. The cells were then vortexed with Nerl Blood Bank Saline pH 7–7.2 (flow cytometry buffer) and transferred to the tube through a sterile cell strainer 40 µm Nylon Mesh. Finally, the cells were resuspended in flow cytometry buffer and analyzed by flow cytometry (FACSVerse model, Becton Dickinson, San Jose, CA, USA) using the FITC channel and the BD FACSuite software. The device was washed before each experiment, and the flow rate was set at medium. Finally, the cells were analyzed by using FITC channel […] argon laser for the excitation and the emitted 519 nm fluorescence for detection. The data presented was based on the FITC-A mean intensity signal for 10,000 cells collected. All assays were performed in triplicates. Results were evaluated to determine whether the peptides are facilitating the fluorescence compound to cross the membrane.
To determine the mechanism of the cellular uptake, F’-[K(DipR)5] or the physical mixture of the F’-GpYEEI and [DipR]5 were used to measure the fluorescence in the treated CCRF-CEM cells. F’-[K(DipR)5] (5 or 10 µM) or the physical mixture of the F’-GpYEEI (2 µM) and [DipR]5 (5 or 10 µM) were incubated with CCRF-CEM cells over 3 h. After each incubation, the medium containing the peptide and cells was removed. The same protocol as the cellular uptake study was used to prepare the cells as described above. Finally, the cells were resuspended in the buffer and analyzed by flow cytometry using the FITC channel and the BD FACSuite software. The data presented was based on the percentage of FITC-A mean intensity signal for 10,000 cells collected. All assays were performed in triplicates.

## N=C(N)NCCC[C@@H]1NC(=O)[C@H](C(c2ccccc2)c2ccccc2)NC(=O)[C@H](CCCNC(=N)N)NC(=O)[C@H](C(c2ccccc2)c2ccccc2)NC(=O)[C@H](CCCNC(=N)N)NC(=O)[C@H](C(c2ccccc2)c2ccccc2)NC(=O)[C@H](CCCNC(=N)N)NC(=O)[C@H](C(c2ccccc2)c2ccccc2)NC(=O)[C@H](CCCNC(=N)N)NC(=O)[C@H](C(c2ccccc2)c2ccccc2)NC1=O [[DipR]5] (cyclo([Dip]R[Dip]R[Dip]R[Dip]R[Dip]R))
[1]
  morphology of self-assembled structures: aggregation
  size of self-assembled structures: ≤ 30 nm
[2]
  Other (random coil): 49.9%
  Turn: 16.6%
  α-helix: 21.4%
  β-sheet: 12.1%
SK-OV-3 cells
  increase of cellular uptake of F’-FTC: 6 fold
CCRF-CEM cells; F’-3TC 2 µM, peptide 10 µM, flow cytometry, n = 3
  increase of cellular uptake of F′-3TC vs cargo alone: 14 fold
CCRF-CEM cells; F’-FTC 2 µM, peptide 10 µM, flow cytometry, n = 3
  increase of cellular uptake of F’-FTC vs cargo alone: 13 fold
CCRF-CEM cells; F’-GpYEEI 2 µM, peptide 5 µM, n = 3
  increase of cellular uptake of F’-GpYEEI: 43 fold
CCRF-CEM cells; side-by-side comparison, F’-GpYEEI 2 µM, peptides 10 µM
  cellular uptake of F’-GpYEEI relative to [R5K]W7A: 5 fold
